Assay results from patent US20050208496A1, “Methods of testing for bronchial asthma or chronic obstructive pulmonary disease” (Genox Research, Inc., priority 2002, published 2005).

Test system: mouse counterpart genes
Assay: Mouse GeneChip (MG-U74A to MG-U74C) analysis of lung and trachea of the OVA antigen-exposed bronchial hypersensitivity model, S-Sal group versus S-OVA group
Type: in vivo
Conditions: S-Sal vs S-OVA group

ovalbumin [OVA antigen, ovalbumin antigen used for sensitization and inhalation to induce bronchial hypersensitivity in mice]
Fold Change, myxovirus (influenza virus) resistance 1 (mouse Probe ID 98417_at) (1st, P/A: A): 1.1 | Fold Change, myxovirus (influenza virus) resistance 2 (mouse Probe ID 102699_at) (1st, P/A: A): 1.2 | Fold Change, myxovirus (influenza virus) resistance 1 (mouse Probe ID 98417_at) (2nd, P/A: A): 2.2 | Fold Change, myxovirus (influenza virus) resistance 2 (mouse Probe ID 102699_at) (2nd, P/A: P): 0.909 | Fold Change, myxovirus (influenza virus) resistance 1 (mouse Probe ID 98417_at) (3rd, P/A: A): 3 | Fold Change, myxovirus (influenza virus) resistance 2 (mouse Probe ID 102699_at) (3rd, P/A: A): 1.3
